Measured values as given in patent US20230265116A1, “DEGRADATION OF (EGFR) BY CONJUGATION OF EGFR INHIBITORS WITH E3 LIGASE LIGAND AND METHODS OF USE” (BEIGENE, LTD., priority 2020, published 2023).

How the values were obtained:
[1] = biological target: T1, EGFR L858R/T790M/C797S (BaF3-LTC cells) (Homo sapiens, UniProt P00533, C797S/L858R/T790M); test: EGFR degradation HTRF assay, BaF3-LTC cells; format: cell-based; conditions: BaF3-LTC, 16h treatment; for Dmax: maximum percentage of degradation, read-out: LTC Dmax (%); for DC50: read-out: LTC DC50
T1 construct: expressed in transfected cells; host or cells: BaF3
Outline: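 EGFR remaining after a 16 h, 37 °C exposure (8 doses, 5-fold steps from 10 uM final, 0.2% DMSO) was quantified by HTRF antibodies in cell lysate. Percent inhibition relative to DMSO control was fitted by four-parameter logistic to give DC50; Dmax denotes maximal degradation.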

[2] = tested on: EGFR Del19/T790M/C797S (BaF3-DTC cells); test: EGFR degradation HTRF assay, BaF3-DTC cells; format: cell-based; conditions: 16h treatment; for DTC Dmax (%): maximum percentage of degradation; for DC50: read-out: DTC DC50
Outline: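 BaF3 (WT, Del19/T790M/C797S) and HCC827 cells exposed 16 h at 37 °C, 5% CO2 to compounds in 0.2% DMSO medium, 8 doses from 10 uM top, 5-fold steps. Lysates read by HTRF (665/620 nm); degradation % vs DMSO control, DC50 from four-parameter fit, Dmax as maximal degradation.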

T1 sequence (P00533 25-1210 T790M/C797S/L858R): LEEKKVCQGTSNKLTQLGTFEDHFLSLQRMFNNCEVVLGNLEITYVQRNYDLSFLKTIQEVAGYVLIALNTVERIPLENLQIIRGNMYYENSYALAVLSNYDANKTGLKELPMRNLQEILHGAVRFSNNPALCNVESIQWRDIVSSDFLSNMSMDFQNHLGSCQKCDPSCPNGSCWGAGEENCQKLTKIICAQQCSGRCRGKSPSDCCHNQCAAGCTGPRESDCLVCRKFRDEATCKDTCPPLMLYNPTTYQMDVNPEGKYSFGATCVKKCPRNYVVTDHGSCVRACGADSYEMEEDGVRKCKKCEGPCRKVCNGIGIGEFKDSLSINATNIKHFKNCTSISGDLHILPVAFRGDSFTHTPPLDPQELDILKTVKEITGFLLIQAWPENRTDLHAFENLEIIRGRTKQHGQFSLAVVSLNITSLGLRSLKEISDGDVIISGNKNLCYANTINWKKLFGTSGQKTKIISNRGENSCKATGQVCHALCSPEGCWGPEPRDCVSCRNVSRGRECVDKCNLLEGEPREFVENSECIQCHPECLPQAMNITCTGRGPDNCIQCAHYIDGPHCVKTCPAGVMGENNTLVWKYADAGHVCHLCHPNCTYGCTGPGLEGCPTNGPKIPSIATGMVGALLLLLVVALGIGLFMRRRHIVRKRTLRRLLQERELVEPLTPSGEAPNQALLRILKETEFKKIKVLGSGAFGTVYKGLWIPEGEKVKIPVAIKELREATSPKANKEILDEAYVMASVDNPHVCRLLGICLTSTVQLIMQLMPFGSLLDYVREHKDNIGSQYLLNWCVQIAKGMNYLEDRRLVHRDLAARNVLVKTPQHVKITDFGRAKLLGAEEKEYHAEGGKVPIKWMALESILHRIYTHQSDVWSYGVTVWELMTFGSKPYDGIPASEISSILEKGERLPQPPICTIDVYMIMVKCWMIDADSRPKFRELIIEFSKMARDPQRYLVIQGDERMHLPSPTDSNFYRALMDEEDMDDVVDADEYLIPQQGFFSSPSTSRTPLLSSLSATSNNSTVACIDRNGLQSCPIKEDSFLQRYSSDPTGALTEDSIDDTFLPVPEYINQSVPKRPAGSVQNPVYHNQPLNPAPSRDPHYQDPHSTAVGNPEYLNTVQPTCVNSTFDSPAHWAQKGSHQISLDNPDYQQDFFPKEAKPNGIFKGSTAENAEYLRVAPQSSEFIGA

Structure (SMILES) | Dmax [1] | DC50 [1] | DC50 [2] | DTC Dmax (%) [2]
CCc1cc(Nc2ncc(Br)c(Nc3ccc4nccnc4c3P(C)(C)=O)n2)c(OC)cc1N1CCC(N2CCN(C3CCN(c4ccc(C5CCC(=O)NC5=O)cc4)CC3)CC2)CC1 (stereo not drawn) [Example 299, 3-(4-(4-(4-(1-(4-((5-bromo-4-((5-(dimethylphosphoryl)quinoxalin-6-yl)amino)pyrimidin-2-yl)amino)-2-ethyl-5-methoxyphenyl)piperidin-4-yl)piperazin-1-yl)piperidin-1-yl)phenyl)piperidine-2,6-dione] | 85% | 0.0364 µM | 0.00488 µM | 80.72%
CCc1cc(Nc2ncc(Br)c(Nc3ccc4nccnc4c3P(C)(C)=O)n2)c(OC)cc1N1CCC(N2CCN(CCc3ccc(C4CCC(=O)NC4=O)c(F)c3)C[C@H]2COC)CC1 (stereo partly drawn) [Example 288, 3-(4-(2-((S)-4-(1-(4-((5-bromo-4-((5-(dimethylphosphoryl)quinoxalin-6-yl)amino)pyrimidin-2-yl)amino)-2-ethyl-5-methoxyphenyl)piperidin-4-yl)-3-(methoxymethyl)piperazin-1-yl)ethyl)-2-fluorophenyl)piperidine-2,6-dione] | 84.1% | 0.333 µM | 0.0213 µM | 69.76%
CCc1cc(Nc2ncc(Br)c(Nc3ccc4nc(C)ccc4c3P(C)(C)=O)n2)c(OC)cc1N1CCC(N2CCN(C(=O)C3CCN(c4ccc5c(c4)n(C)c(=O)n5C4CCC(=O)NC4=O)CC3)CC2)CC1 (stereo not drawn) [Example 210, 3-(5-(4-(4-(1-(4-((5-bromo-4-((5-(dimethylphosphoryl)-2-methylquinolin-6-yl)amino)pyrimidin-2-yl)amino)-2-ethyl-5-methoxyphenyl)piperidin-4-yl)piperazine-1-carbonyl)piperidin-1-yl)-3-methyl-2-oxo-2,3-dihydro-1H-benzo[d]imidazol-1-yl)piperidine-2,6-dione] | 90.5% | 0.00124 µM | 0.000781 µM | 92.69%
CCc1cc(Nc2ncc(Br)c(Nc3ccc4nccnc4c3P(C)(C)=O)n2)c(OC)cc1N1CCC(N2CCN(C(=O)C3CN(c4cccc(C5CCC(=O)NC5=O)c4)C3)CC2)CC1 (stereo not drawn) [Example 230, 3-(3-(3-(4-(1-(4-((5-bromo-4-((5-(dimethylphosphoryl)quinoxalin-6-yl)amino)pyrimidin-2-yl)amino)-2-ethyl-5-methoxyphenyl)piperidin-4-yl)piperazine-1-carbonyl)azetidin-1-yl)phenyl)piperidine-2,6-dione] | 72% | 0.0198 µM | 0.00911 µM | 73.42%
COc1cc(N2CCC(N3CCN(CCc4ccc(C5CCC(=O)NC5=O)c(F)c4)CC3)CC2)c(C)cc1Nc1ncc(Br)c(Nc2ccc3nccnc3c2P(C)(C)=O)n1 (stereo not drawn) [Example 214, 3-(4-(2-(4-(1-(4-((5-bromo-4-((5-(dimethylphosphoryl)quinoxalin-6-yl)amino)pyrimidin-2-yl)amino)-5-methoxy-2-methylphenyl)piperidin-4-yl)piperazin-1-yl)ethyl)-2-fluorophenyl)piperidine-2,6-dione] | 75% | 0.0549 µM | 0.0137 µM | 85.16%
COc1cc(N2CCC(N3CCN(CCC4CCN(c5cc(F)c(C6CCC(=O)NC6=O)c(F)c5)CC4)CC3)CC2)ccc1Nc1ncc(Br)c(Nc2ccc3nccnc3c2P(C)(C)=O)n1 (stereo not drawn) [Example 213, 3-(4-(4-(2-(4-(1-(4-((5-bromo-4-((5-(dimethylphosphoryl)quinoxalin-6-yl)amino)pyrimidin-2-yl)amino)-3-methoxyphenyl)piperidin-4-yl)piperazin-1-yl)ethyl)piperidin-1-yl)-2,6-difluorophenyl)piperidine-2,6-dione] | 88.6% | 0.0211 µM | 0.00471 µM | 94.05%
CCc1cc(Nc2ncc(Br)c(Nc3ccc4nccnc4c3P(C)(C)=O)n2)c(OC)cc1N1CCC(N2CCN(CCc3cc(F)c(C4CCC(=O)NC4=O)c(Cl)c3)CC2)CC1 (stereo not drawn) [Example 238, 3-(4-(2-(4-(1-(4-((5-bromo-4-((5-(dimethylphosphoryl)quinoxalin-6-yl)amino)pyrimidin-2-yl)amino)-2-ethyl-5-methoxyphenyl)piperidin-4-yl)piperazin-1-yl)ethyl)-2-chloro-6-fluorophenyl)piperidine-2,6-dione] | 88.3% | 0.0393 µM | 0.0092 µM | 93.21%
CCc1cc(Nc2ncc(Br)c(Nc3ccc4nccnc4c3P(C)(C)=O)n2)c(OC)cc1N1CCC(N2CCN(CC3CCN(c4cccc(C5CCC(=O)NC5=O)c4)CC3)CC2)CC1 (stereo not drawn) [Example 264, 3-(3-(4-((4-(1-(4-((5-bromo-4-((5-(dimethylphosphoryl)quinoxalin-6-yl)amino)pyrimidin-2-yl)amino)-2-ethyl-5-methoxyphenyl)piperidin-4-yl)piperazin-1-yl)methyl)piperidin-1-yl)phenyl)piperidine-2,6-dione] | 86.2% | 0.061 µM | 0.0171 µM | 74.58%
COc1cc(N2CCC(N3CCN(CCC4CCN(c5cc(F)c(C6CCC(=O)NC6=O)c(F)c5)CC4)CC3)CC2)c(C)cc1Nc1ncc(Br)c(Nc2ccc3nc(C)ccc3c2P(C)(C)=O)n1 (stereo not drawn) [Example 217, 3-(4-(4-(2-(4-(1-(4-((5-bromo-4-((5-(dimethylphosphoryl)-2-methylquinolin-6-yl)amino)pyrimidin-2-yl)amino)-5-methoxy-2-methylphenyl)piperidin-4-yl)piperazin-1-yl)ethyl)piperidin-1-yl)-2,6-difluorophenyl)piperidine-2,6-dione] | 89.6% | 0.0868 µM | 0.0297 µM | 90.75%
COc1cc(N2CCC(N3CCN(CCC4CCN(c5cc(F)c(C6CCC(=O)NC6=O)c(F)c5)CC4)CC3)CC2)ccc1Nc1ncc(Br)c(Nc2ccc3nc(C)ccc3c2P(C)(C)=O)n1 (stereo not drawn) [Example 218, 3-(4-(4-(2-(4-(1-(4-((5-bromo-4-((5-(dimethylphosphoryl)-2-methylquinolin-6-yl)amino)pyrimidin-2-yl)amino)-3-methoxyphenyl)piperidin-4-yl)piperazin-1-yl)ethyl)piperidin-1-yl)-2,6-difluorophenyl)piperidine-2,6-dione] | 87.3% | 0.00919 µM | 0.0029 µM | 97.83%

More lines, main results first:

Dmax [1] | DC50 [1] | DC50 [2] | Structure (SMILES) | DTC Dmax (%) [2]
86.1% | 0.0161 µM | 0.00817 µM | CCc1cc(Nc2ncc(Br)c(Nc3ccc4nc(C)ccc4c3P(C)(C)=O)n2)c(OC)cc1N1CCC(N2CCN(CCC3CCN(c4cc(F)c(C5CCC(=O)NC5=O)c(F)c4)CC3)CC2)CC1 (stereo not drawn) [Example 312, 3-(4-(4-(2-(4-(1-(4-((5-bromo-4-((5-(dimethylphosphoryl)-2-methylquinolin-6-yl)amino)pyrimidin-2-yl)amino)-2-ethyl-5-methoxyphenyl)piperidin-4-yl)piperazin-1-yl)ethyl)piperidin-1-yl)-2,6-difluorophenyl)piperidine-2,6-dione] | 88.59%
89.8% | 0.00708 µM | 0.0043 µM | CCc1cc(Nc2ncc(Br)c(Nc3ccc4nc(C)ccc4c3P(C)(C)=O)n2)c(OC)cc1N1CCC(N2CCN(CCc3cc(F)c(C4CCC(=O)NC4=O)c(F)c3)C[C@@H]2C)CC1 (stereo partly drawn) [Example 715, 3-(4-(2-((S)-4-(1-(4-((5-bromo-4-((5-(dimethylphosphoryl)-2-methylquinolin-6-yl)amino)pyrimidin-2-yl)amino)-2-ethyl-5-methoxyphenyl)piperidin-4-yl)-3-methylpiperazin-1-yl)ethyl)-2,6-difluorophenyl)piperidine-2,6-dione] | 92.57%
90.4% | 0.0508 µM | 0.00743 µM | CCc1cc(Nc2ncc(Br)c(Nc3ccc4nc(C)ccc4c3P(C)(C)=O)n2)c(OC)cc1N1CCC(N2CCCN(CCc3cc(F)c(C4CCC(=O)NC4=O)c(F)c3)CC2)CC1 (stereo not drawn) [Example 713, 3-(4-(2-(4-(1-(4-((5-bromo-4-((5-(dimethylphosphoryl)-2-methylquinolin-6-yl)amino)pyrimidin-2-yl)amino)-2-ethyl-5-methoxyphenyl)piperidin-4-yl)-1,4-diazepan-1-yl)ethyl)-2,6-difluorophenyl)piperidine-2,6-dione] | 86.33%
91.7% | 0.0203 µM | 0.0104 µM | CCc1cc(Nc2ncc(Br)c(Nc3ccc4c(=O)n(C)ccc4c3P(C)(C)=O)n2)c(OC)cc1N1CCC(N2CCN(CCC3CCN(c4cc(F)c(C5CCC(=O)NC5=O)c(F)c4)CC3)CC2)CC1 (stereo not drawn) [Example 720, 3-(4-(4-(2-(4-(1-(4-((5-bromo-4-((5-(dimethylphosphoryl)-2-methyl-1-oxo-1,2-dihydroisoquinolin-6-yl)amino)pyrimidin-2-yl)amino)-2-ethyl-5-methoxyphenyl)piperidin-4-yl)piperazin-1-yl)ethyl)piperidin-1-yl)-2,6-difluorophenyl)piperidine-2,6-dione] | 86.63%
90.8% | 0.00288 µM | 0.000505 µM | CCc1cc(Nc2ncc(Br)c(Nc3ccc4nc(C)ccc4c3P(C)(C)=O)n2)c(OC)cc1N1CCC(N2CCN(CCc3ccc4c(c3)C(C)(C)C(=O)N4C3CCC(=O)NC3=O)CC2)CC1 (stereo not drawn) [Example 711, 3-(5-(2-(4-(1-(4-((5-bromo-4-((5-(dimethylphosphoryl)-2-methylquinolin-6-yl)amino)pyrimidin-2-yl)amino)-2-ethyl-5-methoxyphenyl)piperidin-4-yl)piperazin-1-yl)ethyl)-3,3-dimethyl-2-oxoindolin-1-yl)piperidine-2,6-dione] | 91.94%
